Literature values as cited in PMC8025584, “Identification of multipotent drugs for COVID-19 therapeutics with the evaluation of their SARS-CoV2 inhibitory activity” (Computational and Structural Biotechnology Journal, 2021).
Structures can show the parent of a compound that is named as a salt. Where two headings read alike, the source gives them in different places.

Tested on: differentially expressed human proteins in COVID-19
Conditions: cited from earlier work
[1] = gene HCK, drug-gene interaction listed in DGIdb export, ref DGIdb

CC[C@]1(O)C[C@@H]2CN(CCc3c([nH]c4ccccc34)[C@@](C(=O)OC)(c3cc4c(cc3OC)N(C)[C@H]3[C@@](O)(C(=O)OC)[C@H](OC(C)=O)[C@]5(CC)C=CCN6CC[C@]43[C@@H]65)C2)C1 [VINBLASTINE SULFATE]
interaction_types (gene TUBA4A, ref DGIdb): inhibitor

C#CC1(OC(N)=O)CCCCC1 [ETHINAMATE]
interaction_types: inhibitor

CC(OC(=O)NCC1(CC(=O)O)CCCCC1)OC(=O)C(C)C (centres unmarked) [GABAPENTIN ENACARBIL, reference compound]
interaction_types (gene CACNA1A, drug-gene interaction listed in DGIdb export, ref DGIdb): modulator

CN(c1ncccc1CNc1nc(Nc2ccc3c(c2)CC(=O)N3)ncc1C(F)(F)F)S(C)(=O)=O [PF-00562271]
interaction_types (gene PTK2B, ref DGIdb): inhibitor

BELIMUMAB
interaction_types (gene TNFSF13B, drug-gene interaction listed in DGIdb export, ref DGIdb): antibody¦inhibitor¦modulator

CN(C)C(=N)N=C(N)N [METFORMIN]
interaction_types (gene PRKAB1, ref DGIdb): activator¦inducer

CCN[C@H]1C[C@H](C)S(=O)(=O)c2sc(S(N)(=O)=O)cc21 [DORZOLAMIDE]
interaction_types (gene CA1, ref DGIdb): inhibitor

SARGRAMOSTIM
interaction_types (gene CSF2RB, ref DGIdb): agonist

CCC1NC(=O)c2cc(S(N)(=O)=O)c(Cl)cc2N1 (centres unmarked) [QUINETHAZONE]
interaction_types (gene CA1, ref DGIdb): inhibitor

Cc1c(CN2CCN(C(=O)[C@H](C)O)CC2)sc2c(N3CCOCC3)nc(-c3cnc(N)nc3)nc12 [APITOLISIB]
interaction_types (gene FGR, ref DGIdb): inhibitor

c1ccc(-c2[nH]ncc2-c2ccnc3ccccc23)nc1 [chembl:CHEMBL261454]
interaction_types (gene GAK, drug-gene interaction listed in DGIdb export, ref DGIdb): inhibitor

C[C@H]1c2cccc(O)c2C(=O)C2=C(O)[C@]3(O)C(=O)C(C(N)=O)=C(O)[C@@H](N(C)C)[C@@H]3[C@@H](O)[C@@H]21 [DOXYCYCLINE]
interaction_types (gene MMP8, ref DGIdb): inhibitor

DENENICOKIN
interaction_types (gene IL2RG, ref DGIdb): agonist

NS(=O)(=O)c1cc2c(cc1Cl)NC(C1CC3C=CC1C3)NS2(=O)=O (centres unmarked) [CYCLOTHIAZIDE, reference compound]
interaction_types (gene CA1, ref DGIdb): inhibitor

CO[C@H]1C(=O)[C@]2(C)[C@@H](OC)C[C@H]3OC[C@@]3(OC(C)=O)[C@H]2[C@H](OC(=O)c2ccccc2)[C@]2(O)C[C@H](OC(=O)[C@H](O)[C@@H](NC(=O)OC(C)(C)C)c3ccccc3)C(C)=C1C2(C)C [CABAZITAXEL, reference compound]
interaction_types (gene TUBA4A, ref DGIdb): inhibitor¦binder

CCN[C@H]1CN(CCCOC)S(=O)(=O)c2sc(S(N)(=O)=O)cc21 [BRINZOLAMIDE]
interaction_types (gene CA1, ref DGIdb): inhibitor

CCCCc1c(-c2ccc(OC)cc2)[nH]c2nccnc12 [ALOISINE]
interaction_types (gene PTK2B, ref DGIdb): inhibitor

CCS(=O)(=O)Nc1ccc2c(c1)/C(=C(/Nc1ccc(CN3CCCCC3)cc1)c1ccccc1)C(=O)N2 [HESPERADIN]
interaction_types [1]: inhibitor
interaction_types (gene PTK2B, ref DGIdb): inhibitor

Cl.N=C(N)N [GUANIDINE HYDROCHLORIDE]
interaction_types (gene KCNH7, ref DGIdb): blocker

COc1cc2nc(N3CCN(C(=O)C4CCCO4)CC3)nc(N)c2cc1OC (centres unmarked) [TERAZOSIN]
interaction_types (gene KCNH7, ref DGIdb): inhibitor

Cc1cc(-c2cc(OC(=O)c3ccccc3)ccc2Cl)cc2nnc(Nc3ccc(OCCN4CCCC4)cc3)nc12 [TG100-801]
interaction_types (gene FGR, ref DGIdb): inhibitor
interaction_types [1]: inhibitor

NC(=O)c1cnc(N[C@@H]2CCCC[C@@H]2N)nc1Nc1cccc(-n2nccn2)c1 [PRT-2607]
interaction_types (gene FGR, ref DGIdb): inhibitor

C=C1C[C@@H]2CC[C@@]34C[C@H]5O[C@H]6[C@@H](O3)[C@H]3O[C@H](CC[C@@H]3O[C@H]6[C@H]5O4)CC(=O)C[C@@H]3[C@@H](OC)[C@@H](C[C@H](O)CN)O[C@H]3C[C@H]3O[C@@H](CC[C@@H]1O2)C[C@@H](C)C3=C [ERIBULIN MESYLATE]
interaction_types (gene TUBA4A, ref DGIdb): inhibitor

PEGFILGRASTIM
interaction_types (gene CSF3R, ref DGIdb): agonist

NS(=O)(=O)c1cc2c(cc1Cl)NC(C(Cl)Cl)NS2(=O)=O (centres unmarked) [TRICHLORMETHIAZIDE, reference compound]
interaction_types (gene CA1, ref DGIdb): inhibitor

CC1=C(/C=C/C(C)=C\C=C\C(C)=C\C(=O)O)C(C)(C)CCC1 [ALITRETINOIN, reference compound]
interaction_types (gene RXRB, ref DGIdb): agonist

C=C(c1ccc(C(=O)O)cc1)c1cc2c(cc1C)C(C)(C)CCC2(C)C [BEXAROTENE, reference compound]
interaction_types (gene RXRB, ref DGIdb): activator¦agonist
